# According to US20220041627A1, “PRODRUGS OF ANTI-CANCER AND ANTI-AUTOIMMUNE DISEASES THERAPEUTIC AGENTS, AND METHODS OF MAKING AND USE THEREOF” (UNIVERSITY OF MARYLAND, BALTIMORE, priority 2018, published 2022):
# Test system: wild-type C57BL/6 male mice
# Test: Acute toxicity in mice
# Assay type: in vivo
# Conditions: 100 mg/kg i.p. every other day for 15 days, compared to vehicle group
# Protocol: FIGS. 5A and 5B illustrate the survival rate (FIG. 5A) and body weight (FIG. 5B) curves of the various groups of mice. […] Mice were treated every other day by intraperitoneal (i.p.) injection for 15 days, the survival and body weights of the mice were recorded after treatment.
# Mice were treated every other day by intraperitoneal (i.p.) injection for 15 days, the survival and body weights of the mice were recorded after treatment.
compound,measurement,value
"CC1(C)OB(c2ccc(Cn3cc(F)c(=O)[nH]c3=O)cc2)OC1(C)C [Compound 1a, 5-Fluoro-1-(4-(4,4,5,5-tetramethyl-1,3,2-dioxaborolan-2-yl)benzyl)pyrimidine-2,4(1H,3H)-dione]",body weights,no obvious changes
